The record followed here is patent US20130130387A1, “METHOD FOR GENERATING INDUCED PLURIPOTENT STEM CELLS FROM KERATINOCYTES DERIVED FROM PLUCKED HAIR FOLLICLES” (Technion Research & Development Foundation Limited, priority 2010, published 2013).

Entries after “also recorded” stand apart in the source; their conditions may differ.

Test [1] deals with HFKT-iPSC-CMs (β-adrenergic signaling pathway). Briefly: [Ca2+]i transients and contractions of HFKT-iPSC-derived cardiomyocytes. Format: cell-based, human. To be noted: HFKT-iPSC-CMs clone KTR13, 37 day-old EB, stimulated at 0.6 Hz; effect within 2-3 min. As to the method: [Ca^2+]i transients and contractions were measured in small dissociated contracting areas of EBs by means of fura-2 fluorescence (Biotium, Hayward, Calif., USA) and a video edge detector, respectively, as previously described (Dolnikov et al. 2006; Sedan et al. 2008).
In order to investigate the basic properties of the intracellular Ca^2+ ([Ca^2+]i) handling machinery and the mechanical function, [Ca^2+]I transients and contractions were recorded from small contracting clusters of the HFKT-iPSC-CMs by means of fura-2 fluorescence and a video edge detector, respectively.

The test system of another test is HFKTs (KTN). The test can be described thus: Conditions improving HFKT reprogramming: validated iPSC colonies. It counts as cell-based, human. To be noted: for Validated iPSCs colonies: frozen virus, reduced virus concentration.

Turning to `CC(C)NCC(O)c1ccc(O)c(O)c1` (stereo not shown) [isoproterenol], the “Effect on [Ca2+]i transient and contraction amplitudes” value in test [1] is reported as “marked concentration-dependent positive inotropic effect; also recorded: increase in contraction amplitude”.
Regarding `Cc1c[nH]c(-c2cnc(NCCNc3ccc(C#N)cn3)nc2-c2ccc(Cl)cc2Cl)n1` [CHIR99021], the “Validated iPSCs colonies” value in the test on HFKTs (KTN) (KTN + Cherry (3 reprogramming factors, no c-Myc)) was found to be 6; in the test with HFKTs (KTN) (KTN + Stemcca (4 reprogramming factors)) it was 2. Further, the “Generation of iPSCs with reduced number of factors” value in the test with HFKTs (KTN) (polycistronic vector with Oct4, Klf4 and Sox2, without c-Myc (cherry vector)) is listed as “able to generate iPSCs with no c-Myc”.
